Experimental data reported in patent publication US20260335341A1, “METHODS FOR TREATING PAEDIATRIC NEUROLOGICAL DISORDERS” (Neurotech International Limited, priority 2022, published 2026).
Where two headings read alike, the source gives them in different places.

Assay: Stability of NTI164 oil formulation at room temperature (UPLC)
[1] = NTI164 oil, room temperature, Day 14

Row | SMILES | Cannabinoid content of NTI164, Day 14 | Cannabinoid content of NTI164, Day 0 (NTI164 oil, room temperature) | Cannabinoid content of NTI164, Day 2 (NTI164 oil, room temperature) | Cannabinoid content of NTI164, Day 7 (NTI164 oil, room temperature) | Cannabinoid content of NTI164, Day 28 (NTI164 oil, room temperature) | Cannabinoid content of NTI164, Week 5 (NTI164 oil, room temperature) | Cannabinoid content of NTI164, Week 6 (NTI164 oil, room temperature) | Cannabinoid content of NTI164, Week 32 (NTI164 oil, room temperature) | Cannabinoid content of NTI164, Day 14 [1]
1 | CCCc1cc(O)c2c(c1)OC(C)(C)[C@@H]1CCC(C)=C[C@@H]21 [Tetrahydrocannabivarin (THCV), Tetrahydrocannabivarin] | <0.1 mg/mL | <0.1 mg/mL | <0.1 mg/mL | <0.1 mg/mL | <0.1 mg/mL | <0.1 mg/mL | <0.1 mg/mL | <0.1 mg/mL | –
2 | CCCCCc1cc(O)c(C/C=C(\C)CCC=C(C)C)c(O)c1C(=O)O [Cannabigerol Acid(CBG-A), Cannabigerolic acid] | – | 1.07 mg/mL | 1.18 mg/mL | 1.20 mg/mL | 0.81 mg/mL | 1.08 mg/mL | 1.00 mg/mL | 1.05 mg/mL | 1.19 mg/mL
3 | CCCCCc1cc(O)c2c(c1)OC(C)(CCC=C(C)C)C=C2 (stereo not drawn) [Cannabichrome(CBC), Cannabichromene] | – | 1.23 mg/mL | 1.19 mg/mL | 1.34 mg/mL | 1.27 mg/mL | 1.20 mg/mL | 1.15 mg/mL | 1.22 mg/mL | 1.22 mg/mL
4 | CCCCCc1cc(O)c2c(c1)OC(C)(C)C1CC=C(C)CC21 (stereo not drawn) [DELTA-8-THC (D8-THC), Delta-8-tetrahydrocannabinol] | <0.1 mg/mL | <0.1 mg/mL | <0.1 mg/mL | <0.1 mg/mL | <0.1 mg/mL | <0.1 mg/mL | <0.1 mg/mL | <0.1 mg/mL | –
5 | C=C(C)[C@@H]1CCC(C)=C[C@H]1c1c(O)cc(CCCCC)c(C(=O)O)c1O [Cannabidiol acid (CBD-A), Cannabidiol acid] | – | 48.16 mg/mL | 48.19 mg/mL | 48.62 mg/mL | 47.12 mg/mL | 48.35 mg/mL | 47.56 mg/mL | 47.01 mg/mL | 48.09 mg/mL
6 | C=C(C)[C@@H]1CCC(C)=C[C@H]1c1c(O)cc(CCC)cc1O [Cannabidivarin (CBDV), Cannabidivarin] | – | <0.1 mg/mL | <0.1 mg/mL | <0.1 mg/mL | <0.1 mg/mL | 0.10 mg/mL | <0.1 mg/mL | 0.13 mg/mL | <0.1 mg/mL
